Test system: normal anesthetized rats
Experiment: Flexor reflex in normal anesthetized rats (spasticity model)
Type: in vivo
Details: in comparison to baclofen, Figure 3 legend only, no numbers given
Source text: Baclofen, diazepam (Valium), and tizanidine are effective on different parameters of spasticity (EMG recordings, H-reflex, the H/M ratio, mono- and polysynaptic reflexes, clonus, hyperreflexia) in these models. The flexor reflex is a polysynaptic response elicited by stimulation of the bottom of the foot and models the withdrawal reflex.

NC(=O)CC(c1cccc(F)c1)c1cccc(F)c1 [Compound 1, 3,3-bis(3-fluorophenyl)propanamide]
reduction in the flexor reflex: reduction in the flexor reflex

From patent publication EP1640359A2, “Anticonvulsant and central nervous system-active bis(fluorophenyl)alkylamides” (NPS PHARMACEUTICALS, INC., priority 1997, dated 1999)
